Laboratory results as given in patent publication US8039505B2, “Compounds for modulating T-cells” (University of Utah Research Foundation, priority 2007, dated 2011).

System: cell cycle in zebrafish embryos
Test: Cell cycle profiles in zebrafish embryos (propidium iodide, flow cytometry)
Format: in vivo
Conditions: zebrafish embryos incubated from 4 hours post fertilization overnight, DNA content by flow cytometry
Procedure: FIG. 2 is a group of cell cycle profiles of active compounds tested in 24 hour zebrafish embryos. Specifically, embryos incubated with E3 fishwater (panel A), hydroxyurea (panel B), compound C4 (panel C), and compound C3 (panel D) are shown. After overnight incubation, single cell solution of embryos was prepared and incubated with propidium iodide. Samples were then subjected to flow cytometry to determine DNA content (X axis). Small arrowheads below the X-axis are placed beneath the diploid (G1) n=2 peak, and the tetraploid (G2/M) n=4 peaks. Cells between these two peaks are in S phase. Cells to the left of the G1 peak (sub G1 peak) have lost chromosomes (n<2), and are presumably dying (indicated as % debris in the right hand legend of each panel). Relative numbers of cells (Y-axis) in the different phases of the cell cycle are given on the right side of each panel.
All of these compounds were tested for effects on the cell cycle in zebrafish embryos. Zebrafish embryos were incubated at 4 hours post fertilization with compounds or controls. After overnight incubation in compounds, single cell solution of embryos was prepared and incubated with propidium iodide. Samples were then subjected to flow cytometry to determine DNA content. […] Examples are depicted in FIG. 2.
In FIG. 2, embryos incubated with (A) E3 fishwater, (B) hydroxyurea, (C) compound C4, and (D) C3 are shown. Diploid (G1, n=2) and tetraploid (G2/M, n=4) peaks are identified on the X-axis. Small arrowheads below the X-axis are placed beneath the dipoid (G1) n=2 peak, and the tetraploid (G2/M) n=4 peaks. Cells between these two peaks are in S phase. Cells to the left of the G1 peak (sub G1 peak) have lost chromosomes (n<2) and are presumably dying (indicated as % debris in the right hand legend of each panel). Relative numbers of cells (Y axis) in the different phases of the cell cycle are given on the right side of each panel.

## NC(=O)NO [hydroxyurea, reference compound]
  Effect on the cell cycle: S phase arrest
